Reference: patent publication US20050255538A1, “Methods for screening for AcrAB efflux pump inhibitors” (priority 2002, published 2005)

Test system: E. coli ΔemrE mutants
Assay: Antimicrobial susceptibility assays of efflux pump deletion mutants
Type: cell-based, Escherichia coli
Settings: ΔemrE mutants in ΔacrAB ΔacrEF background vs parent
Procedure: The PCR mixtures contained 50 ng of E. coli chromosomal DNA, 40 pmol of each primer, 0.2 mM (each) deoxynucleoside triphosphate, 2 mM MgSO4 and 10% (vol/vol) dimethylsufoxide in 1× thermo reaction buffer (New England Biolabs, Mississauga, Ontario, Canada) and were heated for 5 min at 94° C. before the addition of 2 U of Vent DNA polymerase (New England Biolabs) per reaction. The reaction was then processed for 30 cycles of 40 sec: at 94° C., 40 sec at 56° C. and 40 sec at 72° C. before finishing with 10 min at 72° C. The PCR products to be used in each deletion were purified using a Qiaquick™ PCR purification kit (Qiagen Inc.), digested with BamHI and EcoRI or EcoRI and Sail as appropriate, and cloned into EcoRI-SalI-restricted pBluescript II SK(+) via a three-piece ligation. The resultant vectors, pXZL967 and pXZL983, carried deletions in emrE and emrD respectively, as confirmed by restriction analysis and nucleotide sequencing. Digestion of plasmids pXZL967 and pXZL983, with BamHI and SalI released fragments carrying the PCR-generated deletions of emrE (246 bp in-frame deletion), and emrD (1101 bp in-frame deletion), respectively, which were then cloned into BamHI-SalI-restricted pK03, yielding pXZL975, pXZL987, and pXZL1024 (selected on chloramphenicol (30 μg/ml)-containing LB agar at 30° C.). […]

## CC[n+]1c(-c2ccccc2)c2cc(N)ccc2c2ccc(N)cc21 [ethidium bromide]
  fold increase in MIC values (more susceptible): 32 fold
